Measurements from patent US10538555B2, “Macrocyclic inhibitors of the PD-1/PD-L1 and CD80(B7-1)/PD-L1 protein/protein interactions” (BRISTOL-MYERS SQUIBB COMPANY, priority 2014, dated 2020).
Where two headings read alike, the source gives them in different places. Where a SMILES comes first, the peptide text is derived from it. Bridges are numbered along the chain shown (N, C = ends). [ ]: non-standard residue; d: D form. Phe(3,4,5-F3) = N[C@@H](Cc1cc(F)c(F)c(F)c1)C(=O)O; Phe(3,4-F2) = N[C@@H](Cc1ccc(F)c(F)c1)C(=O)O; d(cisHyp) = O=C(O)[C@H]1C[C@@H](O)CN1; Bta = N[C@@H](Cc1csc2ccccc12)C(=O)O; Hyp = O=C(O)[C@@H]1C[C@@H](O)CN1; NMeF = CN[C@@H](Cc1ccccc1)C(=O)O; dNMeF = CN[C@H](Cc1ccccc1)C(=O)O; hPhe = N[C@@H](CCc1ccccc1)C(=O)O; dHyp = O=C(O)[C@H]1C[C@H](O)CN1; NMehSer = CN[C@@H](CCO)C(=O)O; NMeNle = CCCC[C@H](NC)C(=O)O; Pip = O=C(O)[C@@H]1CCCCN1; NMeA = CN[C@@H](C)C(=O)O; Orn = NCCC[C@H](N)C(=O)O; Dab = NCC[C@H](N)C(=O)O; Sar = CNCC(=O)O

Target: T1, Human PD-L1/PD-1 (Homo sapiens, UniProt Q9NZQ7)
T1 construct: TVMV protease cleavage site (C); made in house; host or cells: HEK293T cells
T1 sequence (Q9NZQ7 with tags, fused parts or gaps): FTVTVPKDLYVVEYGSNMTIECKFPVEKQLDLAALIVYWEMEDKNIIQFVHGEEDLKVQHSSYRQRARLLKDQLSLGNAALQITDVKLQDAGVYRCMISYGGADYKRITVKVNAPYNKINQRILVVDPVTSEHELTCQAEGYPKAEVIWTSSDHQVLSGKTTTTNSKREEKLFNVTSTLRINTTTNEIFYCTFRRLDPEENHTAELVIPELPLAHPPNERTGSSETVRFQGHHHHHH
Assay: HTRF Human PD-L1/PD-1 binding assay (PD-1-Ig/PD-L1-His)
Details: PD-L1-His 10 nM, PD-1-Ig 20 nM
In short: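 Compound preincubated 15 min with PD-L1-His (10 nM final), then PD-1-Ig (20 nM final) added for 15 min in dPBS with 0.1% BSA and 0.05% Tween-20. Detection by Eu-cryptate anti-Ig (1 nM) and APC anti-His (20 nM) after 30 min; 665/620 nm HTRF ratio. Proteins expressed in HEK293T.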

[1] = class symbol, read-out: HTRF Human PD-L1/PD-1 Binding Assay IC50 Range
[2] = read-out: HTRF Human PD-L1/PD-1 Binding Assay IC50

Compound | IC50 [1] | IC50 [2]
CCCC[C@H]1C(=O)N(C)[C@@H](CCCC)C(=O)N[C@@H](CCCN)C(=O)N[C@H](C(=O)NCC(N)=O)CSCC(=O)N[C@@H](Cc2ccc(O)cc2)C(=O)N2CCC(C)(C)[C@H]2C(=O)N[C@@H](CC(N)=O)C(=O)N2CCCC2C(=O)N[C@@H](Cc2cnc[nH]2)C(=O)N[C@@H](CC(C)C)C(=O)N2C[C@H](O)C[C@H]2C(=O)N[C@@H](Cc2c[nH]c3ccccc23)C(=O)N[C@@H](CO)C(=O)N[C@@H](Cc2c[nH]c3ccccc23)C(=O)N1C (stereo partly drawn) [Example 1240] | 1000 to 10000 nM | –
COCC[C@H]1C(=O)N2C[C@@H](O)C[C@@H]2C(=O)N[C@@H](CC(=O)O)C(=O)N[C@@H](C(C)C)C(=O)N(C)[C@H](Cc2ccccc2)C(=O)N[C@@H](Cc2ccc(O)cc2)C(=O)N2C[C@@H](O)C[C@@H]2C(=O)N[C@@H](Cc2c[nH]c3ccccc23)C(=O)N[C@@H](Cc2ccc(O)cc2)C(=O)N[C@@H](CCCN)C(=O)N[C@H](C(=O)NCC(N)=O)CSCC(=O)N[C@@H](Cc2ccc(F)c(F)c2)C(=O)N(C)[C@@H](Cc2ccccc2)C(=O)N1C [Example 9238] ({CH2CO}-[Phe(3,4-F2)][NMeF][NMehSer](Me)[dHyp]DV[dNMeF]Y[dHyp]WY[Orn]CG-NH2; thioether N-13) | 1 to 9.9 nM | –
CCCC[C@H]1C(=O)N2C[C@@H](O)C[C@@H]2C(=O)N[C@@H](CC(=O)O)C(=O)N[C@@H](C(C)C)C(=O)N(C)[C@@H](Cc2ccccc2)C(=O)N[C@@H](CCC(=O)O)C(=O)N2C[C@H](O)C[C@@H]2C(=O)N[C@@H](Cc2c[nH]c3ccccc23)C(=O)N[C@@H](Cc2ccc(O)cc2)C(=O)N[C@@H](CCCN)C(=O)N[C@H](C(=O)NCC(N)=O)CSCC(=O)N[C@@H](Cc2cc(F)c(F)c(F)c2)C(=O)N(C)[C@@H](Cc2ccccc2)C(=O)N1C [Example 9370] ({CH2CO}-[Phe(3,4,5-F3)][NMeF][NMeNle][dHyp]DV[NMeF]E[d(cisHyp)]WY[Orn]CG-NH2; thioether N-13) | – | 5.7 nM
CCCC[C@H]1C(=O)N(C)[C@@H](CCCC)C(=O)N[C@@H](CCCN)C(=O)N[C@H](C(=O)NCC(N)=O)CSCC(=O)N[C@@H](Cc2ccc(OC)cc2)C(=O)N(C)[C@@H](C)C(=O)N[C@@H](CC(=O)O)C(=O)N2CCC[C@H]2C(=O)N[C@@H](Cc2cnc[nH]2)C(=O)N[C@@H](CCCCN)C(=O)N2C[C@H](O)C[C@H]2C(=O)N[C@@H](Cc2c[nH]c3ccccc23)C(=O)N[C@@H](CCN)C(=O)N[C@@H](Cc2c[nH]c3ccccc23)C(=O)N1C [Example 7094] ({CH2CO}-Y(Me)[NMeA]DPHK[Hyp]W[Dab]W[NMeNle][NMeNle][Orn]CG-NH2; thioether N-14) | 1 to 9.9 nM | –
CCCC[C@H]1C(=O)N(C)CC(=O)N[C@@H](CC(=O)O)C(=O)N[C@@H](CCc2ccccc2)C(=O)N(C)[C@@H](Cc2ccccc2)C(=O)N[C@@H](Cc2ccc(O)cc2)C(=O)N(C)CC(=O)N[C@@H](Cc2c[nH]c3ccccc23)C(=O)N[C@@H](Cc2ccc(O)cc2)C(=O)N[C@@H](CC(C)C)C(=O)N[C@H](C(=O)NCC(N)=O)CSCC(=O)N[C@@H](Cc2ccccc2)C(=O)N(C)[C@@H](Cc2ccccc2)C(=O)N1C [Example 3226] ({CH2CO}-F[NMeF][NMeNle][Sar]D[hPhe][NMeF]Y[Sar]WYLCG-NH2; thioether N-13) | – | 1860 nM
CCCC[C@H]1C(=O)N(C)[C@@H](CCCC)C(=O)N[C@@H](CCC(=O)O)C(=O)N[C@H](C(=O)NCC(N)=O)CSCC(=O)N[C@@H](Cc2ccc(O)cc2)C(=O)N2CCCC[C@H]2C(=O)N[C@@H](CC(=O)O)C(=O)N2CCC[C@H]2C(=O)N[C@@H](CO)C(=O)N[C@@H](CCC(N)=O)C(=O)N2C[C@H](O)C[C@H]2C(=O)N[C@@H](Cc2c[nH]c3ccccc23)C(=O)N[C@@H](CO)C(=O)N[C@@H](Cc2csc3ccccc23)C(=O)N1C [Example 1506] ({CH2CO}-Y[Pip]DPSQ[Hyp]WS[Bta][NMeNle][NMeNle]ECG-NH2; thioether N-14) | 1 to 9.9 nM | –
